Experimental data reported in patent US11564913B2, “Compositions and methods for treating cancer” (Children's Hospital Medical Center, priority 2019, dated 2023).

Key:
[1] = test system: MDA-MB-231 cells expressing shVav3; experiment: Viability and proliferation, trypan blue exclusion; format: cell-based, human; settings: 0.1-1 μM
Method: FIG. 16: IODVA1 decreases levels of pVav3 in in vitro and in vivo models of triple negative breast cancer. (A) Immunoblot and quantification of Vav3 protein in lysates of MDA-MB-231 triple negative breast cancer cells stably expressing scrambled or Vav3-targeting shRNAs. Viability of the MDA-MB-231 cells stably expressing shVav3 in the presence of IODVA1 (0-1 μM). Cells were grown in the presence of IODVA1 and counted by trypan blue exclusion at the indicated time points. (B) MDA-MB-231 cells were incubated with IODVA1 (3 μM) for 15 min and the levels of phosphorylated Vav3 (pY173) were assessed by immunoblotting. (C) Immunohistochemical staining of phosphorylated Vav3 in tissue derived from MDA-MB-231 xenografts treated with vehicle control or IODVA1.
Next, we tested if IODVA1 is effective in another model of Vav3-dependent cancer. We chose MDA-MB-231 triple negative breast cancer cells because these cells express high endogenous levels of Vav3 (Chen, 2015) and because Vav3 is an acknowledged target in breast cancer (Chen, 2015; Lee, 2008; Aguilar, 2014; Citterio, 2012; Lorenzo-Martin. 2019). […] Second, we incubated MDA-MB-231 cells with IODVA1 (3 μM) for 15 min and analyzed the levels of phosphorylated Vav3 (pY173) by immunoblotting. […]

MDA-MB-231 cells = experiment: EGF-induced lamellipodia formation / F-actin staining; format: cell-based, human
Method: FIG. 5: Cytoskeletal changes induced by IODVA1 treatment. IODVA1 inhibits lamellipodia and circular dorsal ruffle (CDR) formation in MDA-MB-231 cells and decreases Rac activation. (A) IODVA1 inhibits EGF-induced lamellipodia formation in MDA-MB-231 cells. MDA-MB-231 cells were plated on fibronectin-coated coverslips, serum starved for 4 h, […], fixed and stained with Phalloidin Alexa Fluor 594 (F-Actin, pseudocolored red) and DAPI (nuclei, pseudocolored blue). Representative images show lamellipodia formation and enrichment of actin staining at the leading edge (white closed arrowheads) at 0 and 0.3 μM concentrations and lack of lamellipodia with rounded cell morphology at 1 and 3 μM. Note equally distributed phalloidin staining with presence of stress fibers in the cell body of the 1 and 3 μM treated-cells (white open arrowheads) indicative of stationary cells. Scale bar=10 μm. […] The percentage of cells with CDRs was counted as the number of cells with CDRs normalized to the total number of cells in the field. Around 150 cells were counted per condition per experiment. Cells with multiple CDRs were counted only once. […] Levels of active Rac (RacGTP, % of control), active Cdc42 (Cdc42GTP, % of control) and active RhoA (RhoAGTP, % of control) were quantified using ImageJ and ImageLab and show combined data as mean±s.e.m. from at least 3 independent experiments. […]

SMILES: OC1(c2ccccn2)N=C(Nc2nc3ccccc3[nH]2)N=C1c1ccccn1 (stereo not drawn) [IODVA1, (Z)-2-((1H-benzo[d]imidazol-2-yl)imino)-4,5-di(pyridin-2-yl)-2,5-dihydro-1H-imidazol-5-ol]
- viability and proliferation [1]: no effect
- lamellipodia formation and enrichment of cortical filamentous actin (MDA-MB-231 cells; 0-3 μM for 1 h, then EGF for 30 min): inhibited
- overall filamentous actin staining (MDA-MB-231 cells; EGF, wash out, then 3 μM within 30 min): qualitatively reduced
